Results: the supplement of paper PMC11451515

Test system: SEM cells
Experiment: cell viability relative to DMSO control; higher = less cytotoxic
Conditions: 48 h
How it was run: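 Viability, reported as a per-plate percentage of DMSO wells with cell-free wells as background, came from CellTiter-Glo One luminescence. Reading took place after 48 h at 37°C. Before that, NOMO1 or SEM (500 cells/well) or P12-Ichikawa (1000 cells/well) leukemia cells, adapted for at least four passages in each medium, were seeded in 1536-well plates (5 μl) and pin-dosed with library compounds in DMSO, 47 μM to 0.79 nM over 11 threefold points.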

[1] = HPLM + 10% dialyzed FBS, 0.000781 µM
[2] = HPLM + 10% dialyzed FBS, 0.00234 µM
[3] = HPLM + 10% dialyzed FBS, 0.00702 µM
[4] = HPLM + 10% dialyzed FBS, 0.0211 µM
[5] = HPLM + 10% dialyzed FBS, 0.0632 µM
[6] = HPLM + 10% dialyzed FBS, 0.19 µM
[7] = HPLM + 10% dialyzed FBS, 0.569 µM
[8] = HPLM + 10% dialyzed FBS, 1.71 µM
[9] = HPLM + 10% dialyzed FBS, 5.12 µM
[10] = HPLM + 10% dialyzed FBS, 15.4 µM
[11] = HPLM + 10% dialyzed FBS, 46.1 µM
[12] = RPMI 5 mM glucose + 10% FBS, 0.000781 µM
[13] = RPMI 5 mM glucose + 10% FBS, 0.00234 µM
[14] = RPMI 5 mM glucose + 10% FBS, 0.00702 µM
[15] = RPMI 5 mM glucose + 10% FBS, 0.0211 µM
[16] = RPMI 5 mM glucose + 10% FBS, 0.0632 µM
[17] = RPMI 5 mM glucose + 10% FBS, 0.19 µM
[18] = RPMI 5 mM glucose + 10% FBS, 0.569 µM
[19] = RPMI 5 mM glucose + 10% FBS, 1.71 µM
[20] = RPMI 5 mM glucose + 10% FBS, 5.12 µM
[21] = RPMI 5 mM glucose + 10% FBS, 15.4 µM
[22] = RPMI 5 mM glucose + 10% FBS, 46.1 µM
[23] = RPMI 5 mM glucose + 10% dialyzed FBS, 0.000781 µM
[24] = RPMI 5 mM glucose + 10% dialyzed FBS, 0.00234 µM
[25] = RPMI 5 mM glucose + 10% dialyzed FBS, 0.00702 µM
[26] = RPMI 5 mM glucose + 10% dialyzed FBS, 0.0211 µM
[27] = RPMI 5 mM glucose + 10% dialyzed FBS, 0.0632 µM
[28] = RPMI 5 mM glucose + 10% dialyzed FBS, 0.19 µM
[29] = RPMI 5 mM glucose + 10% dialyzed FBS, 0.569 µM
[30] = RPMI 5 mM glucose + 10% dialyzed FBS, 1.71 µM
[31] = RPMI 5 mM glucose + 10% dialyzed FBS, 5.12 µM
[32] = RPMI 5 mM glucose + 10% dialyzed FBS, 15.4 µM
[33] = RPMI 5 mM glucose + 10% dialyzed FBS, 46.1 µM

Structure (SMILES) | cell viability [1] [%] | cell viability [2] [%] | cell viability [3] [%] | cell viability [4] [%] | cell viability [5] [%] | cell viability [6] [%] | cell viability [7] [%] | cell viability [8] [%] | cell viability [9] [%] | cell viability [10] [%] | cell viability [11] [%] | cell viability [12] [%] | cell viability [13] [%] | cell viability [14] [%] | cell viability [15] [%] | cell viability [16] [%] | cell viability [17] [%] | cell viability [18] [%] | cell viability [19] [%] | cell viability [20] [%] | cell viability [21] [%] | cell viability [22] [%] | cell viability [23] [%] | cell viability [24] [%] | cell viability [25] [%] | cell viability [26] [%] | cell viability [27] [%] | cell viability [28] [%] | cell viability [29] [%] | cell viability [30] [%] | cell viability [31] [%] | cell viability [32] [%] | cell viability [33] [%]
C/C1=C2/[N]3[Co+]456([OH])<-[N]7=C1[C@@H](CCC(N)=O)C(C)(C)/C7=C/C1=[N]->4C(=C(/C)C4=[N]->5[C@@](C)([C@H]3[C@H](CC(N)=O)[C@@]2(C)CCC(=O)NC[C@@H](C)OP(=O)([O-])O[C@H]2[C@@H](O)[C@@H](n3c[n]->6c5cc(C)c(C)cc53)O[C@@H]2CO)[C@@](C)(CC(N)=O)[C@@H]4CCC(N)=O)/[C@@](C)(CC(N)=O)[C@@H]1CCC(N)=O | 93.9 | 90.7 | 94.6 | 98.2 | 98.3 | 94.2 | 94.6 | 92.8 | 94.5 | 73.8 | 60.1 | 112 | 116 | 104 | 82.5 | 113 | 95.9 | 99.3 | 97.3 | 77.1 | 91.6 | 79.9 | 96.4 | 96.6 | 109 | 100 | 110 | 95.6 | 101 | 101 | 103 | 80.4 | 71
O=C1NC(=O)/C(=C/c2ccc3nccnc3c2)S1 | 117 | 123 | 128 | 114 | 120 | 113 | 109 | 105 | 97 | 104 | 102 | 120 | 136 | 115 | 126 | 136 | 120 | 128 | 115 | 73 | 99.5 | 103 | – | – | – | – | – | – | – | – | – | – | –
C[C@]1(O)CC(C1)C2=NC(=C3[N]2C=CN=C3N)C4=CC5=C(C=C4)C=CC(=N5)C6=CC=CC=C6 (configuration not stated) | 77.3 | 81.7 | 87.6 | 90.4 | 87.1 | 67.6 | 76 | 47.2 | 26.5 | 3.17 | 2.38 | 95.8 | 96.8 | 105 | 103 | 105 | 66.4 | 68.8 | 42.2 | 16.6 | 3.06 | 1.58 | 77.7 | 67.5 | 80.7 | 84 | 87.2 | 55.8 | 72.5 | 42.7 | 24.3 | 3.02 | 1.93
CCc1ccc(OCc2ccccc2C(=O)Nc2ccc3nc(C)cc(N)c3c2)cc1 | 75.2 | 102 | 98.9 | 90.2 | 104 | 117 | 110 | 109 | 26.6 | 11.3 | 8.33 | 98.5 | 102 | 98.9 | 99.3 | 112 | 111 | 122 | 116 | 109 | 20.7 | 7.66 | 94.4 | 107 | 91.4 | 107 | 103 | 114 | 111 | 102 | 111 | 22.1 | 7.91
O=C(O)c1ccc(O)c2ncc(N3CCOCC3)cc12 | 101 | 117 | 128 | 110 | 103 | 102 | 116 | 99.8 | 73.5 | 99.2 | 11.4 | 106 | 109 | 109 | 115 | 112 | 94.1 | 106 | 99.3 | 65.9 | 84 | 7.59 | 94.8 | 98.4 | 96 | 99.6 | 95 | 86.2 | 99 | 87.4 | 46.4 | 68.9 | 7.27
CC(C)(N)C(=O)N[C@H](COCc1ccccc1)C(=O)N1CCC2(CC1)CN([S+](C)(=O)[O-])c1ccccc12 | – | – | – | – | – | – | – | – | – | – | – | 124 | 127 | 122 | 155 | 130 | 130 | 139 | 121 | 114 | 91.9 | 36.8 | – | – | – | – | – | – | – | – | – | – | –
CCN(CC)CCNC(=O)c1c(C)[nH]c(/C=C2\C(=O)Nc3ccc(F)cc32)c1C | 48 | 47.3 | 43.4 | 53 | 41.8 | 13 | 9.03 | 6.26 | 5.73 | 4.36 | 4.22 | 72.7 | 66.3 | 58.1 | 57 | 34.1 | 10.6 | 9.65 | 6.37 | 5.9 | 3.85 | 4.31 | 52.8 | 42.7 | 42.2 | 44.5 | 27.6 | 9.68 | 9.05 | 6.13 | 5.9 | 3.85 | 3.99
CC(=O)SC[C@@H](C)C(=O)N1CCC[C@H]1C(=O)N[C@@H](Cc1ccccc1)C(=O)O | 116 | 107 | 99.6 | 110 | 115 | 103 | 111 | 106 | 107 | 66.7 | 83.3 | 83.8 | 86.2 | 95.3 | 98.1 | 105 | 97.7 | 110 | 97.2 | 113 | 87.1 | 72.6 | 95.1 | 98.3 | 114 | 104 | 104 | 103 | 107 | 101 | 110 | 101 | 85.7
C[C@@H]1CC[C@@]2(CC[C@]3(C)\C(=C/C[C@@H]4[C@@]5(C)CC[C@H](O)C(C)(C)[C@@H]5CC[C@@]34C)[C@@H]2[C@H]1C)C(O)=O | 85.6 | 109 | 111 | 110 | 112 | 116 | 123 | 122 | 108 | 117 | 121 | 105 | 101 | 108 | 96.2 | 113 | 123 | 109 | 99.2 | 102 | 114 | 61.6 | 107 | 116 | 114 | 111 | 112 | 118 | 118 | 136 | 129 | 118 | 110
CCNC(=O)Nc1ccc(Oc2ncnc(N)c2/C=N/OC)cc1Cl | 96.9 | 100 | 99.8 | 105 | 110 | 112 | 117 | 73.5 | 78.5 | 68.1 | 83.1 | 75.3 | 84.1 | 75.5 | 78.7 | 74.9 | 79.5 | 70.5 | 37.4 | 70 | 44.8 | 56.8 | 99.5 | 103 | 111 | 111 | 108 | 117 | 111 | 55.9 | 75.4 | 56 | 74.7
NC1=NC(=O)N2CC12 (configuration not stated) | 84.2 | 79.8 | 87.7 | 86.3 | 87.2 | 76.5 | 94.9 | 60.6 | 34.9 | 3.13 | 2.28 | 106 | 82.3 | 86.8 | 104 | 85.1 | 82.6 | 85.2 | 43 | 25.6 | 2.22 | 2.07 | 77.3 | 79.6 | 82.5 | 78.7 | 79.3 | 69.3 | 84.1 | 51.4 | 23.9 | 1.65 | 1.54
CC/C=C\C[C@H]1C(=O)CC[C@@H]1CC(=O)OC | 76 | 118 | 130 | 130 | 125 | 118 | 125 | 118 | 113 | 114 | 103 | 60.3 | 109 | 101 | 114 | 109 | 100 | 126 | 102 | 99.3 | 109 | 88.9 | 78 | 112 | 137 | 147 | 153 | 127 | 135 | 120 | 122 | 112 | 120
COCCn1c2c([n+](Cc3cnccn3)c1C)C(=O)c1ccccc1C2=O | 128 | 113 | 123 | 50.7 | 23.5 | 11.2 | 7.74 | 8.7 | 8.71 | 4.23 | 3.41 | 116 | 128 | 114 | 110 | 71.4 | 15.5 | 7.97 | 8.06 | 5.61 | 4.16 | 2.77 | 105 | 132 | 117 | 91.1 | 46.2 | 12.6 | 8.08 | 7.35 | 5.94 | 4.15 | 3.55
CN1C(=O)/C(=C(NC2=CC=C(I)C=C2F)\C3=C1\N=C/N(C[C@@H](O)CO)C3=O)F | 77.3 | 76.4 | 92.5 | 90.9 | 89.6 | 79.6 | 70.6 | 59.6 | 65.6 | 18.6 | 51.3 | 79.2 | 98.6 | 107 | 91.8 | 74.6 | 73.2 | 53.9 | 60.2 | 68.5 | 12.8 | 30.6 | 77.5 | 71.3 | 90.8 | 93.2 | 69.6 | 64.2 | 54.8 | 54.8 | 53 | 14.2 | 28
CN(C)C/C=C/C(=O)Nc1ccc(C(=O)Nc2cccc(Nc3ncc(Cl)c(-c4c[nH]c5ccccc45)n3)c2)cc1 | 75.1 | 79.4 | 90 | 62.5 | 85.8 | 47.6 | 4.17 | 3.85 | 3.85 | 3.77 | 3.63 | 97.5 | 122 | 128 | 129 | 120 | 68 | 5.08 | 6.09 | 5.71 | 6.09 | 6.13 | 83.4 | 76.3 | 103 | 73.3 | 78.8 | 43.6 | 4.95 | 4.94 | 4.59 | 4.42 | 4.34
